Data taken from paper PMC3898987 (Bioorganic & Medicinal Chemistry, 2013).
Substitutions are numbered along the chain they refer to.

Experiments:
[1] = biological target: T1, 5-HT3AB receptor, 5-HT3B subunit F130A (Homo sapiens, UniProt O95264+P46098, F123A); test: radioligand saturation binding, transfected HEK293 membranes
T1 sequence (P46098 24-478): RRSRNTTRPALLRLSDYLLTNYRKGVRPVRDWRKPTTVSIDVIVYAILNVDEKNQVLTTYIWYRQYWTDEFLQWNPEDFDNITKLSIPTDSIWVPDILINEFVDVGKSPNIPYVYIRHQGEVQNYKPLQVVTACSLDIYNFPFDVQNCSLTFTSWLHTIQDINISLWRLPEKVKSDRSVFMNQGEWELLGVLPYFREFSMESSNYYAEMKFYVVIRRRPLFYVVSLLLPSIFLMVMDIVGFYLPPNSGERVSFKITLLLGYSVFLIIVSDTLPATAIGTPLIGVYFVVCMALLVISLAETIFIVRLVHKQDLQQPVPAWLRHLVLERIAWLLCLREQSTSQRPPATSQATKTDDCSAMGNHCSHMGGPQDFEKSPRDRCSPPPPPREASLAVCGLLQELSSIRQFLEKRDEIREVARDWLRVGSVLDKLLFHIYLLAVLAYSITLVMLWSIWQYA
T1 sequence (O95264 22-441 F123A): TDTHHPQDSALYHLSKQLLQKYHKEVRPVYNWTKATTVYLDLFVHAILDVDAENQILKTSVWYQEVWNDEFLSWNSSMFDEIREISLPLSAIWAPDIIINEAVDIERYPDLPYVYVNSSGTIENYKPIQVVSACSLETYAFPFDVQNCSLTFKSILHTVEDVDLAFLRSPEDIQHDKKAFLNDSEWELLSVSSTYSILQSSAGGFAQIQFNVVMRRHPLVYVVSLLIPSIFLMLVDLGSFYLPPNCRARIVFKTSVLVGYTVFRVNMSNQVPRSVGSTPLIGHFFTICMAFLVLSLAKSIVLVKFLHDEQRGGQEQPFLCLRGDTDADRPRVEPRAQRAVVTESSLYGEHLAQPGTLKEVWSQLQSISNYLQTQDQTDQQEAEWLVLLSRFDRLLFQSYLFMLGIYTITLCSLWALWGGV
Method: (§1) Human embryonic kidney (HEK) 293 cells were cultured on 90 mm tissue culture plates at 37 °C and 7% CO2 in a humidified atmosphere. They were grown in DMEM:F12 (Dulbecco’s Modified Eagle’s Medium/Nutrient Mix F12 (1:1)) with GlutaMAX I™ containing 10% fetal calf serum and passaged when confluent. For radioligand binding studies, cells in 90 mm dishes were transfected at 60–70% confluency using polyethyleneimine and incubated for 3–4 days before use. For FlexStation assays, transfected cells were plated on 96-well plates and incubated 1–2 days before assay. […]
(§2) Eight-point binding assays were performed to produce saturation binding curves. […] Radioactive counts were measured using a Beckman LS6000SC liquid scintillation counter (Fullerton, California, USA).
(§3) Data were analyzed by iterative curve fitting using GraphPad Prism v5 (San Diego, CA) according to the following equation: B=Bmax[L]^n/kdn+[L]^n where B is the amount of bound radioligand, Bmax is the maximum specific binding at equilibrium, [L] is the concentration of radioligand, Kd is the equilibrium dissociation constant of the radioligand, and n is the Hill coefficient.

5-HT3A receptor F130A = biological target: T2, 5-HT3A receptor F130A (Homo sapiens, UniProt P46098, F125A); test: FlexStation membrane potential dye functional assay, HEK293 cells; format: cell-based; parameters: expressed in transfected cells; host or cells: HEK293; settings: 5-HT3A F130A
T2 sequence (P46098 24-478 F125A): T1 sequence (P46098 24-478) with F102A
Method: (§4) Human embryonic kidney (HEK) 293 cells were cultured on 90 mm tissue culture plates at 37 °C and 7% CO2 in a humidified atmosphere. They were grown in DMEM:F12 (Dulbecco’s Modified Eagle’s Medium/Nutrient Mix F12 (1:1)) with GlutaMAX I™ containing 10% fetal calf serum and passaged when confluent. […] For FlexStation assays, transfected cells were plated on 96-well plates and incubated 1–2 days before assay.
(§5) Fluorometric studies were undertaken using a FlexStation® (Molecular Devices, Sunnyvale, CA, USA) as previously described.[11]
(§6) Fluorescence was measured every 2 s for 200 s. […] Concentration–response and inhibition curves were obtained for each mutant, and the fluorescence values were normalized to the maximal response.

5-HT3A receptor Y73F = biological target: T3, 5-HT3A receptor Y73F (Homo sapiens, UniProt P46098, Y68F); test: radioligand saturation binding, transfected HEK293 membranes; settings: [3H]-palonosetron saturation, 5-HT3A Y73F, 4 °C, 24 h
T3 sequence (P46098 24-478 Y68F): T1 sequence (P46098 24-478) with Y45F
Method: as §1, §2, §3

5-HT3A receptor Y73S = biological target: T4, 5-HT3A receptor Y73S (Homo sapiens, UniProt P46098, Y68S); test: FlexStation membrane potential dye functional assay, HEK293 cells; format: cell-based; parameters: expressed in transfected cells; host or cells: HEK293; settings: 5-HT3A Y73S
T4 sequence (P46098 24-478 Y68S): T1 sequence (P46098 24-478) with Y45S
Method: as §4, §5, §6

[2] = inhibition of 5-HT (EC50 concentration) response, 45 min preincubation

Compound	Kd ([1]; [3H]-palonosetron saturation, 5-HT3AB with 5-HT3B F130A, 4 °C, 24 h)	increase in Kd compared to wild type ([1]; [3H]palonosetron, F130A (5-HT3B) containing heteromers vs WT 5-HT3AB)	IC50 (5-HT3A receptor F130A; [2])	Kd (5-HT3A receptor Y73F)	IC50 (5-HT3A receptor Y73S; [2])	Hill Coefficient (5-HT3A receptor F130A; 5-HT concentration-response)	Hill Coefficient (5-HT3A receptor Y73S; 5-HT concentration-response)
O=C1c2cccc3c2[C@H](CCC3)CN1[C@@H]1CN2CCC1CC2 [Palonosetron]	0.48 ± 0.03 nM	twofold	4.4 ± 1.8 nM	0.25 ± 0.04 nM	3.64 ± 1.1 nM		
NCCc1c[nH]c2ccc(O)cc12 [5-HT, serotonin]						1.5 ± 0.2	2.0 ± 0.3
